Reference: PMC5218480 (PLoS ONE, 2017)

System: MV-4-11 cells
Experiment: Gene expression microarray analysis (Affymetrix PrimeView) and GSEA
Type: cell-based, human
Parameters: RFU PODN (11730768_x_at) / Fold change /veh PODN (11730768_x_at) / RFU LINC00158 (11744669_a_at) / Fold change /veh LINC00158 (11744669_a_at) / RFU DUSP10 (11751237_a_at) / Fold change /veh DUSP10 (11751237_a_at) / RFU ID3 (11757404_x_at) / Fold change /veh ID3 (11757404_x_at) / RFU PLEKHG5 (11737974_s_at) / Fold change /veh PLEKHG5 (11737974_s_at) / RFU LRRC4B (11730491_at) / Fold change /veh LRRC4B (11730491_at) / RFU GIMAP4 (11747438_a_at) / Fold change /veh GIMAP4 (11747438_a_at) / RFU KRT8 (11758183_x_at) / Fold change /veh KRT8 (11758183_x_at) / RFU CNN1 (11734310_a_at) / Fold change /veh CNN1 (11734310_a_at) / RFU VPS37D (11726825_at) / Fold change /veh VPS37D (11726825_at) / RFU C10orf10 (11716522_x_at) / Fold change /veh C10orf10 (11716522_x_at) / RFU KIR2DL2 /// KIR2DL4 /// KIR2DL5A /// KIR2DL5B /// KIR2DS1 /// KIR2DS2 /// KIR2DS3 /// KIR2DS4 /// KIR3DL3 /// KIR3DL3 /// KIR3DS1 (11738374_at) / Fold change /veh KIR2DL2 /// KIR2DL4 /// KIR2DL5A /// KIR2DL5B /// KIR2DS1 /// KIR2DS2 /// KIR2DS3 /// KIR2DS4 /// KIR3DL3 /// KIR3DL3 /// KIR3DS1 (11738374_at) / RFU C1QL1 (11718748_at) / Fold change /veh C1QL1 (11718748_at) / RFU TMPRSS4 (11747572_a_at) / Fold change /veh TMPRSS4 (11747572_a_at) / RFU HAMP (11756126_x_at) / Fold change /veh HAMP (11756126_x_at) / RFU RNFT2 (11725882_a_at) / Fold change /veh RNFT2 (11725882_a_at) / RFU NR4A2 (11747474_a_at) / Fold change /veh NR4A2 (11747474_a_at) / RFU ABCC12 (11746883_a_at) / Fold change /veh ABCC12 (11746883_a_at) / RFU TMEM136 (11760407_x_at) / Fold change /veh TMEM136 (11760407_x_at) / RFU CLDN22 /// WWC2 (11732394_at) / Fold change /veh CLDN22 /// WWC2 (11732394_at) / RFU HLA-DPB1 (11760878_x_at) / Fold change /veh HLA-DPB1 (11760878_x_at) / RFU SPINT1 (11716480_a_at) / Fold change /veh SPINT1 (11716480_a_at) / RFU GAP43 (11754022_s_at) / Fold change /veh GAP43 (11754022_s_at) / RFU A4GNT (11735810_at) / Fold change /veh A4GNT (11735810_at) / RFU PRB3 (11715151_x_at) / Fold change /veh PRB3 (11715151_x_at) / RFU TUBB4B (11761932_at) / Fold change /veh TUBB4B (11761932_at) / RFU CAPN14 (11732068_a_at) / Fold change /veh CAPN14 (11732068_a_at) / RFU TMCC2 (11721928_a_at) / Fold change /veh TMCC2 (11721928_a_at) / RFU IRGQ (11745062_a_at) / Fold change /veh IRGQ (11745062_a_at) / RFU FAM174B (11720279_a_at) / Fold change /veh FAM174B (11720279_a_at) / RFU TMPRSS4 (11748680_a_at) / Fold change /veh TMPRSS4 (11748680_a_at) / RFU FAM212B (11763350_a_at) / Fold change /veh FAM212B (11763350_a_at) / RFU PLEKHG5 (11743358_a_at) / Fold change /veh PLEKHG5 (11743358_a_at) / RFU ZSCAN30 (11745921_a_at) / Fold change /veh ZSCAN30 (11745921_a_at) / RFU CMKLR1 (11741424_a_at) / Fold change /veh CMKLR1 (11741424_a_at) / RFU LOC101060620 /// MAPK8IP1 (11723275_at) / Fold change /veh LOC101060620 /// MAPK8IP1 (11723275_at) / RFU SPTSSB (11747773_x_at) / Fold change /veh SPTSSB (11747773_x_at) / RFU PRSS12 (11739890_at) / Fold change /veh PRSS12 (11739890_at) / RFU BIN1 (11741810_x_at) / Fold change /veh BIN1 (11741810_x_at) / RFU WNT11 (11732464_a_at) / Fold change /veh WNT11 (11732464_a_at) / RFU C10orf10 (11716521_a_at) / Fold change /veh C10orf10 (11716521_a_at) / RFU C5orf56 (11738089_at) / Fold change /veh C5orf56 (11738089_at) / RFU CYB561 (11721691_x_at) / Fold change /veh CYB561 (11721691_x_at) / RFU ANKRD19P (11752326_a_at) / Fold change /veh ANKRD19P (11752326_a_at) / RFU OR2T12 /// OR2T33 /// OR2T8 (11738714_s_at) / Fold change /veh OR2T12 /// OR2T33 /// OR2T8 (11738714_s_at) / RFU VCAN (11748164_a_at) / Fold change /veh VCAN (11748164_a_at) / RFU JSRP1 (11732532_at) / Fold change /veh JSRP1 (11732532_at) / RFU KRTAP10-11 (11738290_x_at) / Fold change /veh KRTAP10-11 (11738290_x_at) / RFU MYO3A (11730013_a_at) / Fold change /veh MYO3A (11730013_a_at) / RFU EBF3 (11725865_a_at) / Fold change /veh EBF3 (11725865_a_at) / RFU CAMK2N1 (11719241_x_at) / Fold change /veh CAMK2N1 (11719241_x_at) / RFU C5orf56 (11738088_a_at) / Fold change /veh C5orf56 (11738088_a_at) / RFU OLFML3 (11715873_a_at) / Fold change /veh OLFML3 (11715873_a_at) / RFU LOC100653217 /// NTM (11731650_a_at) / Fold change /veh LOC100653217 /// NTM (11731650_a_at) / RFU MAPK11 (11762145_a_at) / Fold change /veh MAPK11 (11762145_a_at) / RFU FIZ1 (11724087_x_at) / Fold change /veh FIZ1 (11724087_x_at) / RFU OASL (11726364_x_at) / Fold change /veh OASL (11726364_x_at) / RFU SOX15 (11748057_x_at) / Fold change /veh SOX15 (11748057_x_at) / RFU CD79A (11719716_a_at) / Fold change /veh CD79A (11719716_a_at) / RFU HIST1H1D (11736915_at) / Fold change /veh HIST1H1D (11736915_at) / RFU CASKIN2 (11723855_a_at) / Fold change /veh CASKIN2 (11723855_a_at) / RFU LOC730098 (11760151_x_at) / Fold change /veh LOC730098 (11760151_x_at) / RFU OR4N2 (11742367_at) / Fold change /veh OR4N2 (11742367_at) / RFU PRRT2 (11749266_a_at) / Fold change /veh PRRT2 (11749266_a_at) / RFU SNX32 (11753110_a_at) / Fold change /veh SNX32 (11753110_a_at) / RFU CDHR5 (11726645_a_at) / Fold change /veh CDHR5 (11726645_a_at) / RFU RCAN1 (11760418_a_at) / Fold change /veh RCAN1 (11760418_a_at) / RFU FAM167A (11723789_a_at) / Fold change /veh FAM167A (11723789_a_at) / RFU FAM26E (11764081_at) / Fold change /veh FAM26E (11764081_at) / RFU ISYNA1 (11749810_s_at) / Fold change /veh ISYNA1 (11749810_s_at) / RFU ACY1 (11761880_at) / Fold change /veh ACY1 (11761880_at) / RFU 11764098_at / Fold change /veh 11764098_at / RFU SAMD14 (11745864_x_at) / Fold change /veh SAMD14 (11745864_x_at) / RFU NPB (11741838_a_at) / Fold change /veh NPB (11741838_a_at) / RFU TMPRSS6 (11731388_a_at) / Fold change /veh TMPRSS6 (11731388_a_at) / RFU KRTAP10-2 (11738614_at) / Fold change /veh KRTAP10-2 (11738614_at) / RFU ARHGAP8 /// PRR5-ARHGAP8 (11727945_x_at) / Fold change /veh ARHGAP8 /// PRR5-ARHGAP8 (11727945_x_at) / RFU KRTAP5-7 /// NADSYN1 (11734609_at) / Fold change /veh KRTAP5-7 /// NADSYN1 (11734609_at) / RFU RASL12 (11751679_a_at) / Fold change /veh RASL12 (11751679_a_at) / RFU CDKN2B (11736163_a_at) / Fold change /veh CDKN2B (11736163_a_at) / RFU PRF1 (11729649_at) / Fold change /veh PRF1 (11729649_at) / RFU, ZNF638 /// ZNF638-IT1 / Fold change vs veh, ZNF638 /// ZNF638-IT1 / RFU, PANK3 / Fold change vs veh, PANK3 / RFU, SH3YL1 / Fold change vs veh, SH3YL1 / RFU, ZEB2 / Fold change vs veh, ZEB2 / RFU, NRIP1 / Fold change vs veh, NRIP1 / RFU, PTTG1IP / Fold change vs veh, PTTG1IP / RFU, CAPN2 / Fold change vs veh, CAPN2 / RFU, MED14 / Fold change vs veh, MED14 / RFU, SNORA58 / Fold change vs veh, SNORA58 / RFU, C1orf63 / Fold change vs veh, C1orf63 / RFU, LRRFIP1 / Fold change vs veh, LRRFIP1 / RFU, NDUFAF7 / Fold change vs veh, NDUFAF7 / RFU, SLC12A2 / Fold change vs veh, SLC12A2 / RFU, IBTK / Fold change vs veh, IBTK / RFU, ESF1 / Fold change vs veh, ESF1 / Fold change vs veh, TMEM50B / RFU, TAOK1 / Fold change vs veh, TAOK1 / RFU, ACBD3 / Fold change vs veh, ACBD3 / RFU, TMA16 / Fold change vs veh, TMA16 / RFU, RWDD3 / Fold change vs veh, RWDD3 / RFU, BCAT1 / Fold change vs veh, BCAT1 / RFU, EDEM3 / Fold change vs veh, EDEM3 / RFU, TMEM33 / Fold change vs veh, TMEM33 / RFU, WDR75 / Fold change vs veh, WDR75 / RFU, AHCTF1 / Fold change vs veh, AHCTF1 / RFU, TFRC / Fold change vs veh, TFRC / RFU, ZDHHC17 / Fold change vs veh, ZDHHC17 / RFU, NOM1 / Fold change vs veh, NOM1 / RFU, ARL8B / Fold change vs veh, ARL8B / RFU, ZBTB11 / Fold change vs veh, ZBTB11 / RFU, TAMM41 / Fold change vs veh, TAMM41 / RFU, KIAA1704 /// LOC100996395 / Fold change vs veh, KIAA1704 /// LOC100996395 / RFU, ING1 / Fold change vs veh, ING1 / RFU, TRMT61B / Fold change vs veh, TRMT61B / RFU, FUBP3 / Fold change vs veh, FUBP3 / RFU, TP53 / Fold change vs veh, TP53 / RFU, TNKS2 / Fold change vs veh, TNKS2 / RFU, ZFP14 / Fold change vs veh, ZFP14 / RFU, ACTR2 / Fold change vs veh, ACTR2 / RFU, PPP3R1 / Fold change vs veh, PPP3R1 / RFU, PIK3R1 / Fold change vs veh, PIK3R1 / RFU, HNRNPA1 / Fold change vs veh, HNRNPA1 / RFU, RNF170 / Fold change vs veh, RNF170 / RFU, ZNF28 / Fold change vs veh, ZNF28 / RFU, RNGTT / Fold change vs veh, RNGTT / RFU, OGT / Fold change vs veh, OGT / RFU, BRD1 / Fold change vs veh, BRD1 / RFU, MARS / Fold change vs veh, MARS / RFU, ZNF655 / Fold change vs veh, ZNF655 / RFU, FAHD1 / Fold change vs veh, FAHD1 / RFU, BDP1 / Fold change vs veh, BDP1 / RFU, LRRCC1 / Fold change vs veh, LRRCC1 / RFU, ARID1A / Fold change vs veh, ARID1A / RFU, ZNF146 / Fold change vs veh, ZNF146 / RFU, ZNF330 / Fold change vs veh, ZNF330 / RFU, GPN3 / Fold change vs veh, GPN3 / RFU, C9orf123 / Fold change vs veh, C9orf123 / RFU, N4BP2L2 / Fold change vs veh, N4BP2L2 / RFU, ARFIP1 / Fold change vs veh, ARFIP1 / RFU, FAM179B / Fold change vs veh, FAM179B / RFU, BCL10 / Fold change vs veh, BCL10 / RFU, UHRF1BP1L / Fold change vs veh, UHRF1BP1L / RFU, BET1 / Fold change vs veh, BET1 / RFU, CNOT2 / Fold change vs veh, CNOT2 / RFU, ZNF268 / Fold change vs veh, ZNF268 / Fold change vs veh, ZNF507 / RFU, DGCR2 / Fold change vs veh, DGCR2 / RFU, WDSUB1 / Fold change vs veh, WDSUB1 / Fold change vs veh, HSP90B1 /// MIR3652 / RFU, ADSS / Fold change vs veh, ADSS / RFU, GK / Fold change vs veh, GK / RFU, ZNF148 / Fold change vs veh, ZNF148 / RFU, TAF9 / Fold change vs veh, TAF9 / RFU, SLC1A5 / Fold change vs veh, SLC1A5 / RFU, SLMO2 / Fold change vs veh, SLMO2 / RFU, ABCC4 / Fold change vs veh, ABCC4 / RFU, LOC101060439 /// RAP1B / Fold change vs veh, LOC101060439 /// RAP1B / RFU, RFX7 / Fold change vs veh, RFX7 / RFU, GTPBP10 / Fold change vs veh, GTPBP10 / RFU, CNEP1R1 / Fold change vs veh, CNEP1R1 / RFU, BIVM-ERCC5 /// ERCC5 / Fold change vs veh, BIVM-ERCC5 /// ERCC5 / RFU, ILF3 / Fold change vs veh, ILF3 / RFU 11762660_at / Fold change /veh 11762660_at / RFU VCAN (11757783_s_at) / Fold change /veh VCAN (11757783_s_at) / RFU DDX43 (11728927_at) / Fold change /veh DDX43 (11728927_at) / RFU KRT8 (11758188_x_at) / Fold change /veh KRT8 (11758188_x_at) / RFU NKD1 (11759106_at) / Fold change /veh NKD1 (11759106_at) / RFU SRD5A1 (11742802_a_at) / Fold change /veh SRD5A1 (11742802_a_at) / RFU TPSAB1 /// TPSB2 (11721975_s_at) / Fold change /veh TPSAB1 /// TPSB2 (11721975_s_at) / RFU GSTM3 (11746129_a_at) / Fold change /veh GSTM3 (11746129_a_at) / RFU IL23R (11737362_x_at) / Fold change /veh IL23R (11737362_x_at) / RFU TMEM51 (11727254_a_at) / Fold change /veh TMEM51 (11727254_a_at) / RFU PIWIL2 (11732686_x_at) / Fold change /veh PIWIL2 (11732686_x_at) / RFU ORM1 (11744905_x_at) / Fold change /veh ORM1 (11744905_x_at) / RFU CCDC152 (11743942_at) / Fold change /veh CCDC152 (11743942_at) / RFU ECM1 (11717891_a_at) / Fold change /veh ECM1 (11717891_a_at) / RFU IL23R (11748794_a_at) / Fold change /veh IL23R (11748794_a_at) / RFU TNFAIP8L3 (11732012_x_at) / Fold change /veh TNFAIP8L3 (11732012_x_at) / RFU MBOAT4 (11741988_at) / Fold change /veh MBOAT4 (11741988_at) / RFU 11764193_at / Fold change /veh 11764193_at / RFU TMEM53 (11763286_at) / Fold change /veh TMEM53 (11763286_at) / RFU MAGEB2 (11727129_at) / Fold change /veh MAGEB2 (11727129_at) / RFU TMEM200A (11744735_a_at) / Fold change /veh TMEM200A (11744735_a_at) / RFU CCDC152 (11751479_a_at) / Fold change /veh CCDC152 (11751479_a_at) / RFU FAM211A (11726209_a_at) / Fold change /veh FAM211A (11726209_a_at) / RFU RGS16 (11746705_a_at) / Fold change /veh RGS16 (11746705_a_at) / RFU VCAN (11755009_s_at) / Fold change /veh VCAN (11755009_s_at) / RFU RHOB (11743442_s_at) / Fold change /veh RHOB (11743442_s_at) / RFU RGS16 (11720943_a_at) / Fold change /veh RGS16 (11720943_a_at) / RFU RGS16 (11720944_at) / Fold change /veh RGS16 (11720944_at) / RFU, VPS4B / Fold change vs veh, VPS4B / RFU, CREB1 / Fold change vs veh, CREB1 / RFU, DNAJC13 / Fold change vs veh, DNAJC13 / RFU, GNAQ / Fold change vs veh, GNAQ / RFU, CDK5R1 / Fold change vs veh, CDK5R1 / RFU, ZRANB3 / Fold change vs veh, ZRANB3 / RFU, CUL4A / Fold change vs veh, CUL4A / RFU, CCNY / Fold change vs veh, CCNY / RFU, UFL1 / Fold change vs veh, UFL1 / RFU, COG3 / Fold change vs veh, COG3 / RFU, DIAPH2 / Fold change vs veh, DIAPH2 / RFU, SKA2 / Fold change vs veh, SKA2 / RFU, AFF3 / Fold change vs veh, AFF3 / RFU, LMF1 / Fold change vs veh, LMF1 / RFU, IPO11 / Fold change vs veh, IPO11 / RFU, DFFB / Fold change vs veh, DFFB / RFU, FOXP1 / Fold change vs veh, FOXP1 / RFU, CARD8 / Fold change vs veh, CARD8 / RFU, STRN3 / Fold change vs veh, STRN3 / RFU, ADK / Fold change vs veh, ADK / RFU, RASSF2 / Fold change vs veh, RASSF2 / RFU, WIPF1 / Fold change vs veh, WIPF1 / RFU, LARP1B / Fold change vs veh, LARP1B / RFU, RASA1 / Fold change vs veh, RASA1 / RFU, RB1 / Fold change vs veh, RB1 / RFU, PPFIA1 / Fold change vs veh, PPFIA1 / RFU, MAT2A / Fold change vs veh, MAT2A / RFU, CCT5 / Fold change vs veh, CCT5 / RFU, WDR92 / Fold change vs veh, WDR92 / RFU, CUX1 / Fold change vs veh, CUX1 / RFU, TTC7A / Fold change vs veh, TTC7A / RFU, TMEM135 / Fold change vs veh, TMEM135 / RFU, DEPTOR / Fold change vs veh, DEPTOR / RFU, CPM / Fold change vs veh, CPM / RFU, DNAJB6 / Fold change vs veh, DNAJB6 / RFU, CACNA2D3 / Fold change vs veh, CACNA2D3 / RFU, DTX4 / Fold change vs veh, DTX4 / RFU, TFCP2 / Fold change vs veh, TFCP2 / RFU, GMCL1 /// GMCL1P1 / Fold change vs veh, GMCL1 /// GMCL1P1 / RFU, AEBP2 / Fold change vs veh, AEBP2 / RFU, SNHG1 /// SNORD22 /// SNORD25 /// SNORD26 /// SNORD27 /// SNORD28 /// SNORD29 /// SNORD31 / Fold change vs veh, SNHG1 /// SNORD22 /// SNORD25 /// SNORD26 /// SNORD27 /// SNORD28 /// SNORD29 /// SNORD31 / Fold change (Aza/veh), C12orf56 (ProbeSet 11735607_a_at) / Fold change (ACY-1035/veh), C12orf56 (ProbeSet 11735607_a_at) / Fold change (Aza/veh), FGFR1OP (ProbeSet 11751329_s_at) / Fold change (ACY-1035/veh), FGFR1OP (ProbeSet 11751329_s_at) / Fold change (Aza/veh), VPS36 (ProbeSet 11739960_a_at) / Fold change (ACY-1035/veh), VPS36 (ProbeSet 11739960_a_at) / RFU SYPL1 (11715823_x_at) / Fold change /veh SYPL1 (11715823_x_at) / RFU IGFBP7 (11715501_s_at) / Fold change /veh IGFBP7 (11715501_s_at) / RFU REEP3 (11722064_at) / Fold change /veh REEP3 (11722064_at) / RFU IGLL1 (11728026_x_at) / Fold change /veh IGLL1 (11728026_x_at): dose or concentration left out as unconfirmed
Conditions: MV-4-11 cells, 48 hours

SMILES: Nc1ncn([C@@H]2O[C@H](CO)[C@@H](O)[C@H]2O)c(=O)n1 [azacitidine]
- RFU SRD5A1 (11742802_a_at): 51.32 RFU
